Values of other authors in article PMC8791944, “GLUT3 inhibitor discovery through in silico ligand screening and in vivo validation in eukaryotic expression systems” (Scientific Reports, 2022).

System: GLUT3
Settings: read-out: KM of 2-deoxy-glucose for GLUT3; GLUT3 expressed in Xenopus laevis oocytes ref 12; cited from earlier work

Q: With `O=CC[C@@H](O)[C@H](O)[C@H](O)CO` [2-deoxy-glucose, 2-deoxy-D-glucose] as the molecule, how does the Km read?
A: Its Km is ~1.4 mM.
